Data published in patent US8404695B2, “Pyrimidinyl pyridone inhibitors of JNK” (Roche Palo Alto LLC, priority 2008, dated 2013).

Key:
[1] = target: Human JNK1α1 (Homo sapiens, UniProt P45983); test: JNK assay in vitro, phosphorylation of GST-ATF2 (19-96) with [γ-33P] ATP, JNK1; format: biochemical; details: 2 nM enzyme, 1 μM ATF2, 6 μM ATP, 30° C. for 30 min
Method: (§1) JNK activity was measured by phosphorylation of GST-ATF2 (19-96) with [γ-^33P] ATP. The enzyme reaction was conducted at Km concentrations of ATP and the substrate at final volume of 40 μl in buffer containing 25 mM HEPES, pH 7.5, 2 mM dithiothreitol, 150 mM NaCl, 20 mM MgCl2, 0.001% Tween® 20, 0.1% BSA and 10% DMSO. Human JNK2α2 assay contains 1 nM enzyme, 1 μM ATF2, 8 μM ATP with 1 uCi [γ-^33P] ATP. Human JNK1α1 assay contains 2 nM enzyme, 1 μM ATF2, 6 μM ATP with 1 μCi [γ-^33P] ATP. Human JNK3 (Upstate Biotech #14-501M) assay contains 2 nM enzyme, 1 μM ATF2, 4 μM ATP with 1 μCi [γ-^33P] ATP. The enzyme assay was carried out in the presence or absence of several compound concentrations. JNK and compound were pre-incubated for 10 min., followed by initiation of the enzymatic reaction by adding ATP and the substrate. The reaction mixture was incubated at 30° C. for 30 min. At the end of incubation, the reaction was terminated by transferring 25 μl of the reaction mixture to 150 μl of 10% glutathione Sepharose® slurry (Amersham # 27-4574-01) containing 135 mM EDTA. The reaction product was captured on the affinity resin, and washed on a filtration plate (Millipore, MABVNOB50) with phosphate buffered saline for six times to remove free radionucleotide. The incorporation of ^33P into ATF2 was quantified on a microplate scintillation counter (Packard Topcount). Compound inhibition potency on JNK was measured by IC50 value generated from ten concentration inhibition curves fitted into the 3-parameter model: % inhibition=Maximum/(1+(IC50/[Inhibitor])^slope). Data were analyzed on Microsoft Excel for parameter estimation.

[2] = target: Human JNK2α2 (Homo sapiens, UniProt P45984); test: JNK assay in vitro, phosphorylation of GST-ATF2 (19-96) with [γ-33P] ATP, JNK2; format: biochemical; details: 1 nM enzyme, 1 μM ATF2, 8 μM ATP, 30° C. for 30 min
Method: as §1

Sequence of Human JNK1α1 (P45983 1-384 isoform P45983-2): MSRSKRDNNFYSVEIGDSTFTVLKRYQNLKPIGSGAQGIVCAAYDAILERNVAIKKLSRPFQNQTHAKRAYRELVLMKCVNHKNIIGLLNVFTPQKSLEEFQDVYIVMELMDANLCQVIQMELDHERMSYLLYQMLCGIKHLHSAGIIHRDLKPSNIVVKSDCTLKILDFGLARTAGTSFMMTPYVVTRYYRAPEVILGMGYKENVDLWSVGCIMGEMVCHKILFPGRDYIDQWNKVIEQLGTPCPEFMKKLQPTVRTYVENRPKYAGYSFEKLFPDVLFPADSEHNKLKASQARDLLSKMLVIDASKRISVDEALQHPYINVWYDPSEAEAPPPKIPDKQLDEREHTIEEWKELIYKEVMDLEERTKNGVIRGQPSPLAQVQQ
Sequence of Human JNK2α2 (P45984 whole entry): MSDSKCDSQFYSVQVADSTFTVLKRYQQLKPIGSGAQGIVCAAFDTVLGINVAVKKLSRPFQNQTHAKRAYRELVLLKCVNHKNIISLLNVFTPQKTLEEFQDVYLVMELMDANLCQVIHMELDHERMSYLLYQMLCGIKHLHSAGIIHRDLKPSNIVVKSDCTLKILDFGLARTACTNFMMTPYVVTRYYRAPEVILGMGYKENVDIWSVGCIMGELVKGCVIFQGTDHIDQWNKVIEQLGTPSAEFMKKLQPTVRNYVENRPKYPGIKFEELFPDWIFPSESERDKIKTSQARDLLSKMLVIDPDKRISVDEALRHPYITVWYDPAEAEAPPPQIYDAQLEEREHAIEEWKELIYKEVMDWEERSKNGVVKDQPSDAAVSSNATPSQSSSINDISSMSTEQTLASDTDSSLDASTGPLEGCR

SMILES	IC50 [1] [nM]	IC50 [2] [nM]
O=c1ccc2cnc(NC3CCCCC3)nc2n1C1CCCC1 [Compound 3, 2-Cyclohexylamino-8-cyclopentyl-8H-pyrido[2,3-d]pyrimidin-7-one]	108	136
Cc1cc2cnc(N[C@H]3CC[C@H](O)CC3)nc2n(CCCO)c1=O [Compound 7, 2-(4-Hydroxy-cyclohexylamino)-8-(3-hydroxy-propyl)-6-methyl-8H-pyrido[2,3-d]pyrimidin-7-one]	291	409
Cc1cc2cnc(NC3CCCCC3)nc2n(CCCO)c1=O [Compound 11]	503	713

Continued, values first:

IC50 [1] [nM]	IC50 [2] [nM]	SMILES
70.1	154	CC(CCO)n1c(=O)ccc2cnc(NC3CCCCC3)nc21 (stereo not drawn) [Compound 1, 2-Cyclohexylamino-8-(3-hydroxy-1-methyl-propyl)-8H-pyrido[2,3-d]pyrimidin-7-one]
464	625	CS(=O)(=O)NCCCn1c(=O)ccc2cnc(NC3CCCCC3)nc21 [Compound 9, N-[3-(2-Cyclohexylamino-7-oxo-7H-pyrido[2,3-d]pyrimidin-8-yl)-propyl]-methanesulfonamide]
282	778	CS(=O)(=O)N[C@H]1CC[C@H](Nc2ncc3ccc(=O)n(CCCO)c3n2)CC1 [Compound 5, N-{4-[8-(3-Hydroxy-propyl)-7-oxo-7,8-dihydro-pyrido[2,3-d]pyrimidin-2-ylamino]-cyclohexyl}-methanesulfonamide]
